Test [1] concerns LDL. Kind of test: Inhibition of Cu++-dependent LDL oxidation (TBARS formation). The format is biochemical. The settings on record: 10 µM Testsubstanz, 125 µg/ml LDL-protein + 10 µM Cu++, 37° C. Here is the method:
(§1) Die neuen Phenolether wirken LDL-protektiv. Bei Inkubation des LDL it Redoxmetallen hemmen sie die Bildung von thiobarbitursäure-reaktiven Lipidperoxiden (Tab. 1), bei der Oxidation des LDL durch Lipoxydase wird eine selektive Hemmwirkung deutlich (Tab. 2). Unter Testbedingungen, die zu einem wirksamen LDL-Schutz führen, wird die Cholesterinesterbildung in kultivierten Makrophagen gehemmt (Tab. 3).
125 µg/ml LDL-protein + 10 µM Cu⁺⁺ wurden bei 37° C in 2 ml TN-Puffer (20 mM Tris ph 8, 150 mM NaCl) in An- und Abwesenheit von 10 µM Testsubstanz inkubiert. Die Bildung von LDL-Oxidationsprodukten wurde anhand thiobarbitursäurereaktiver Substanzen (TBARS) bei OD532 16 und 23 Stunden nach Beginn der Inkubation gemessen. Tabelle 2

The target in test [2] is T1, Lipoxydase aus Sojabohne (Glycine max, UniProt P08170).
T1 construct: purchased Sigma, München
T1 sequence (P08170 1-839): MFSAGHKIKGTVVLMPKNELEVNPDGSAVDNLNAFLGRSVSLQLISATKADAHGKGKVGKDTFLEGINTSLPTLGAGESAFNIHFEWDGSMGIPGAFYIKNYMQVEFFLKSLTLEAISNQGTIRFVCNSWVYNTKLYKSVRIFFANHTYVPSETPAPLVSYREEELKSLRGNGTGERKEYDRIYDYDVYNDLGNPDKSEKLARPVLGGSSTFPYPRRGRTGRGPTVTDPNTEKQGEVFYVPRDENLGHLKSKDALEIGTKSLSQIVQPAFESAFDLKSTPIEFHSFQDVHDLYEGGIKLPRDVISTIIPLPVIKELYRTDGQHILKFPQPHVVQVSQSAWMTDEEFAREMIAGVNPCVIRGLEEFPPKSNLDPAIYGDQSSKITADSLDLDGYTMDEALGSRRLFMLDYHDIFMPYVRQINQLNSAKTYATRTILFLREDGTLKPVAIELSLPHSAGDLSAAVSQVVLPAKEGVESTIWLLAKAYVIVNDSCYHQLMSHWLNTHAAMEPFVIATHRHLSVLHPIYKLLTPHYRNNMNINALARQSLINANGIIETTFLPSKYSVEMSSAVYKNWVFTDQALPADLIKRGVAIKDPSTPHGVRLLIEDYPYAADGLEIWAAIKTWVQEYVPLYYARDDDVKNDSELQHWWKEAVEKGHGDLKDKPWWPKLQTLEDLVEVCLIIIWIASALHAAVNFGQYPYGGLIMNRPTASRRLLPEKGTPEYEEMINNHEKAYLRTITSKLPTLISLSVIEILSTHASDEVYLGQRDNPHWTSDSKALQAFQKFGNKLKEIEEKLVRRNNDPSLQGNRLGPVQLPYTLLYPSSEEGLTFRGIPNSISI
Kind of test: Inhibition of LDL oxidation by lipoxydase (diene formation at A 234). To be noted: 100 µg LDL-Protein, 500 U/ml Lipoxydase, 37° C, 0-10 µM Testsubstanz, diene formation over 3 h. The format is biochemical.
Experimental: (Tab. 2). […] Die Bildung von […] aus der Oxidation […] des LDL wird bei A 234 über 3 h verfolgt und ist im Kontrollansatz ca. 0.075/h. Die Inhibition der Dienbildung dient als Maß der Lipoxydaseaktivität am LDL-substrat.

Test [3] has as its system P388D.1 murine Makrophagen. As to the kind of experiment: Inhibition of LDL-oxidation-dependent cholesterol ester formation in P388 macrophages. To be noted: 10 µm test substance, 18 Stunden, control without LDL 0.44, control + LDL 1.81. The format is cell-based. As to the method: as §1
125 µg/ml LDL-Protein wurde in F 10-Medium +1 µM Cu⁺⁺ für 5 Stunden inkubiert, um LDL-Antioxidantien zu depletieren. Dann wurden P388D.1 murine Makrophagen (1 x 10⁶ Zellen/ml) in F 10-Medium + 10 % FCS für 18 Stunden mit diesem Ansatz weiter inkubiert. Unter diesen Versuchsbedingungen bleibt das Verhältnis freies Cholesterin (FC)/Protein konstant bei 0.2 µg/mg, während die Cholesterinester in Abhängigkeit von LDL im Medium in den P388D.1 Makrophagen ansteigen, hier ausgedrückt als Anstieg des Verhältnisses von Cholesterinester/freiem Cholesterin […]. Tabelle 4

Test [4] has as its system arteriosklerotischen Arterienwandgewebe. Kind of test: Reduction of LDL catabolism in arteriosclerotic arterial wall tissue (131J-TDS-LDL incorporation). It is filed as in vivo. To be noted: cholesterol-fed Kaninchen, 0.2 % Testsubstanz in diet for 10 Tage, 24 Stunden after LDL infusion, thorakale Aorta; mean ± SEM (range); control 65.7 ± 3.9. An excerpt:
Beim arteriosklerotischen Kaninchen ist die Wirkung der neuen Phenolether direkt am arteriosklerotischen Plaque nachzuweisen. 131I-TDS-LDL, ein Radioiod-LDL, das von den Zellen nach oxydativer Modifikation aufgenommen wird, akkumuliert nach i.v. Gabe massiv im Plaquegewebe. Die neuen Phenolether hemmen signifikant und massiv den LDL-Katabolismus und damit die Cholesterinüberladung der Arterienwandzellen. Daraus resultiert langfristig die Hemmung des Wachstums der Läsionen (Tab. 4).
Jeweils 6 Kaninchen in der Kontrollgruppe und Bsp.l-Gruppe, bzw. 3 Kaninchen in der Probucol-Gruppe für 3 Monate mit 0.5 % Cholesterin-fettreicher Kaninchendiät gefüttert. Die Tiere der verschiedenen Gruppen haben S-Cholspiegel von 1028±99 (771-1358) - 1155±200 (655-1787) mg % am Ende der Fütterungsphase und- ein Körpergewicht von 3050-3680 g erreicht. Die Tiere erhalten dann für 10 Tage 0.2 % Testsubstanz in der fettreichen Diät und anschließend eine Infusion von ¹³¹J-Deoxysorbitol-LDL. Der Einbau von ¹³¹J-Deoxysorbitol in den Arterienwandzellen erfolgt ganz überwiegend in der arteriosklerotischen Läsion und ermöglicht die Quantifizierung des LDL-Umsatzes in den Zellen. 24 Stunden nach der Infusion des LDL werden die Tiere getötet und die thorakale Aorta präpariert. […]

On to `CC(C)(C)c1cc(OCCCOc2cc(C(C)(C)C)c(O)c(C(C)(C)C)c2)cc(C(C)(C)C)c1O` [Bsp. 1, 1,3-Bis-[4-hydroxy-3,5-di-tert.butyl-phenoxy]propan], for which the “TBARS (OD 532) %” value turned out to be 19% in test [1] (16 Std., control 75) and 76% in test [1] (23 Std., control 100). In addition, the IC50 in test [2] stood at 50 nM. In addition, the “CE/FC” value in test [3] is 0.48 µg/µg. Moreover, in test [4], the “Einbau von 131J-TDS-LDLnorm±SEM ng/(mm³xdt/2)” value was 35 ± 1,9 (7-63) ng/(mm³xdt/2).
As to `CC(C)(Sc1cc(C(C)(C)C)c(O)c(C(C)(C)C)c1)Sc1cc(C(C)(C)C)c(O)c(C(C)(C)C)c1` [Probucol, 4,4'[Isopropylidendithio]-bis(2,6-di-tert.-butyl), reference compound], the “TBARS (OD 532) %” value is reported as 56% in test [1] (16 Std., control 75) and 88% in test [1] (23 Std., control 100). In addition, the “CE/FC” value in test [3] was 0.52 µg/µg. Moreover, the “Einbau von 131J-TDS-LDLnorm±SEM ng/(mm³xdt/2)” value in test [4] is reported as 84 ± 7.5 (40-144) ng/(mm³xdt/2).
